# From publication PMC7405012, “Detection of Chaetomium globosum, Ch. cochliodes and Ch. rectangulare during the Diversity Tracking of Mycotoxin-Producing Chaetomium-like Isolates Obtained in Buildings in Finland” (Toxins, 2020)
# Where two headings read alike, the source gives them in different places.
# Legend:
# resting PK-15 cells = test: Mitochondrial damage test: accelerated glucose consumption and extracellular acidosis; type: cell-based, porcine
# Description: The mitochondria were depolarized in sperm cells exposed to sublethal concentrations of chaetoglobosin A (Figure 5) and to the chaetoglobosin-containing extracts (Table 3). This observation aroused the suspicion regarding mitochondrial toxicity. The mitochondrial toxicity of the extracts containing chaetoglobosin was assessed by measuring the accelerated glucose consumption in resting PK-15 cells. […] By contrast, the positive controls for mitochondrial toxicity—enniatin B, moniliformin and valinomycin at sublethal concentrations of 1.5, 4 and 5 ng mL^−1, respectively—promoted the acceleration of glycolysis.
# The test for mitochondrial damage as indicated by accelerated glucose consumption and extracellular acidosis was described earlier. The PK-15 cells were grown in 8-well flat-bottom chamber glass slides, seeded to a density of 4 × 10^4 cells mL^−1, in the respective medium for 48 h. The twofold serially diluted test substances or the vehicle only was dispensed into the wells. The glucose content of the wells was measured by using a glucose meter (Precision Xceed; Abbott Diabetes Care Ltd., Berkshire, United Kingdom). In wells that received nothing or the vehicle only, the glucose concentration decreased from an initial concentration (0 h) of 12 to 6 mM (24 h), but the pH remained as pH of 7.2. A glucose concentration after 24 h of ≤3 mM indicated excessive glucose consumption. Prior to the measurement of the pH, the chamber slides were transferred into ambient air for 1 h to allow CO2 to evaporate. A pH drop of 0.5 units in the toxin-exposed well compared to the vehicle only was considered proof of acidosis. Mitochondrial depolarization (ΔΨm assay) was read by a fluorescence microscope after 26 h of exposure to the toxicants from the monolayers double stained with the membrane potential-responsive fluorogenic dye JC-1 and with propidium iodide to assess the relaxing of the plasma membrane permeability barrier, similar to what was reported previously for sperm cells (27).
# boar spermatozoa [1] = test: cells; type: cell-based; details: Spermatozoa; motile boar sperm, 2 h, 37 °C; read-out: EC50 SMIDM Boar Sperm 2 h
# resting boar spermatozoa [2] = test: Plasma membrane integrity of resting spermatozoa (SMIDR), calcein-AM + PI; type: cell-based; details: Spermatozoa, 48 h; resting boar sperm, 24 °C, 2 days; read-out: EC50 Lethal Toxicity SMIDR 2 days
# Description: (§1) The long-term effects of exposure to chaetoglobosin A and to the chaetoglobosin-containing extracts of the Ch. globosum MTAV35 and MTAV37 strains were measured in resting sperm cells exposed at 24 °C for two days. Three criteria were assessed: (1) the motility inhibition of resting boar spermatozoa (BSMIR); (2) the change in mitochondrial membrane potential (ΔΨ) observed using the potentiometric dye JC-1; and (3) the plasma membrane integrity (SMIDR) observed using the viability stain calcein-AM + propidium iodide (PI). […] By contrast, the EC50 concentrations in the SMIDR assays, which measured the lethal damages in plasma membrane after incubation for two days, were >50 times higher (Figure 5 and Table 3).
# (§2) The boar sperm cells exposed for 2 days to commercial chaetoglobosin A and the crude extract of MTAV35 and MTAV37 were double-stained with the viability stains PI + calcein–AM, the SMIDR assay, as described earlier. The staining protocol was as follows: 200 μL of extended boar semen containing 27 × 10^6 sperm cells mL^−1 was mixed with 200 μL PBS containing 3 μg mL^−1 calcein-AM and 10 μg mL^−1 PI. The ΔΨm assay monitored the mitochondrial membrane potential changes (ΔΨm) by staining with the lipophilic potentiometric dye JC-1 as described by Mikkola et al. (2015). For the staining with JC-1 (35 µg mL^−1), 200 µL of the sperm cells were shaken and incubated at 37 °C for 5 min. After staining, the cells exposed in the SMIDR and the ΔΨm assays were inspected with fluorescence microscope using 400× magnification (Nikon Eclipse E600, Nikon Corporation, Tokyo Japan) with filters BP 450–490 nm/LP 520. The calcein–AM-stained cells with intact plasma membranes produced green fluorescence, whereas the PI-dyed cells with damaged plasma membranes produced red fluorescence. In JC-1 stained sperm cells, mitochondria with high membrane potential emitted yellow fluorescence, whereas depolarized mitochondria fluoresced green.
# (§3) The EC50 concentration in these microscopic assays was defined as the lowest concentration where the ratio of cells similar to those in the solvent control was less than 50%. This EC50 fitted between EC90 and EC10 observed in the microscope calculating ca. 100–120 sperm cells from three microscopic fields. The maximal difference between four parallel tests in each of the two methods was one dilution step. The assays were calibrated with triclosan.
# boar spermatozoa [3] = test: cells; type: cell-based; details: Spermatozoa, 20 min; motile boar sperm, 20 min, 37 °C; read-out: EC50 BSMIM Boar Sperm 20 min
# resting boar spermatozoa [4] = test: Motility inhibition of resting boar spermatozoa (BSMIR); type: cell-based; details: resting boar sperm, 24 °C, 2 days
# Description: as §1, with “Three” for “The long-term effects of exposure to chaetoglobosin A and to the chaetoglobosin-containing extracts of the Ch. globosum MTAV35 and MTAV37 strains were measured in resting sperm cells exposed at 24 °C for two days. Three”
# The procedure for the BSMIR assay measuring sublethal toxicity as motility inhibition, i.e., inability to respond to induction of motility in resting sperm cells is described below: The ethanol solutions (0.5–10 μL) were dispensed in 2000 μL of extended boar semen (Figen Ltd., Tuomikylä, Finland, density of 27 × 10^6 sperms mL^−1) incubated at 24 °C, and motility of the sperms was inspected in the phase-contrast microscope (400× magnification) with a heated stage, (Olympus CKX41, Tokyo, Japan; magnification 400×) and an image recording software (Cellsense® standard version 11.0.06, Olympus Soft Imaging Solutions GmbH, Münster, Germany, 2012) as described previously. […] The EC50 was calculated from the equation of the straight line between EC50-40 and EC80-90: Y = −ΔY/ΔX × X + C where Y is the motility closest to 50% of the motility of the solvent control, X is the EC50 concentration and C is a constant between 100% and 60%. All tests were run in triplicates and differences between replicate tests were within one dilution step (2-fold). The sperm assays were calibrated with triclosan and valinomycin.
# resting boar spermatozoa [5] = test: Mitochondrial membrane potential (ΔΨm) assay with JC-1 in resting spermatozoa; type: cell-based
# Description: as §1, with “Three” for “The long-term effects of exposure to chaetoglobosin A and to the chaetoglobosin-containing extracts of the Ch. globosum MTAV35 and MTAV37 strains were measured in resting sperm cells exposed at 24 °C for two days. Three”
# as §2, §3
smiles,measurement,setting,value
"C/C1=C\[C@@H](C)C/C=C/[C@H]2[C@@H]3O[C@]3(C)[C@@H](C)[C@H]3[C@H](Cc4c[nH]c5ccccc45)NC(=O)[C@]32C(=O)/C=C/C(=O)[C@@H]1O [Chaetoglobosin A, chaetoglobosin A]",EC50 Sublethal Toxicity Acceleration of glycolysis 1 day,"resting PK-15 cells; PK-15, 1 day",None
same,EC50 Sublethal Toxicity Acidosis 2 days,"resting PK-15 cells; PK-15, 2 days",None
same,EC50,boar spermatozoa [1],12 µg/mL
same,CC50,resting boar spermatozoa [2],> 20 µg/mL
same,EC50,boar spermatozoa [3],1 µg/mL
same,EC50 Sublethal Toxicity BSMIR 2 days,resting boar spermatozoa [4],1 µg/mL
same,EC50,"resting boar spermatozoa [5]; Spermatozoa, 48 h, read-out: EC50 Sublethal Toxicity Depletion of ΔΨm 2 days, resting boar sperm, JC-1, 2 days",3 to 4 µg/mL
same,EC50 Sublethal Toxicity Depletion of ΔΨm 2 days,"resting boar spermatozoa [5]; resting boar sperm, JC-1, 2 days",2 µg/mL
